Measured values: ChEMBL document CHEMBL5729557, “5-membered heteroaryl carboxamide compounds for treatment of HBV” (2023)
pEC50: −log10 of the molar value.

Assay: Assay Measuring Activity of Test Compounds on Viral Production from HepAD38 Cells: HepAD38 cells grown in a T-150 flask (Corning, cat #: 430825) with Growth Medium (DMEM/F12 (1:1) (Hyclone, cat #: SH30023.02), 1× Pen/Strep (Invitrogen, cat #: 15140-122), 10% FBS (Tissue Culture Biologics, cat #: 101), 250 μg/mL G418 (Alfa Aesar, cat #: J62671), 1 μg/mL Tetracycline (Teknova, cat #: T3320)) were detached with 0.25% trypsin-EDTA to (Invitrogen, cat #: 25200-056). Tetracycline-free treatment medium (15 mL DMEM/F12 (1:1) 1× Pen/step, with 2% FBS, Tet-system approved (Clontech, cat #: 631106) were then added to mix, transferred into a 50 ml conical tube (Falcon, cat #: 21008-918,) and spun at 1300 rpm for 5 min. Pelleted cells were then re-suspended/washed with 50 mL of 1×DPBS (Invitrogen, cat #: 14190-136) 2 times and 50 mL treatment medium twice. HepAD38 cells were then re-suspended with 10 mL of treatment medium, syringed and counted. Wells of 96-well clear bottom TC plate (Corning, cat #: 3904,) were seeded at 50,000 cells/well in 180 μL of treatment medium, and 20 μL of either 10% DMSO (Sigma, cat #: D4540) as controls or a 10× solution of test compounds in 10% DMSO in treatment media was added for a final compound concentration starting at 10 μM, and plates were incubated in 5% CO2 incubator at 37° C. for 5 days.Subsequently viral load production was assayed by quantitative PCR (qPCR) of the HBV core sequence. PCR reaction mixture containing forward primers HBV-f 5′-CTGTGCCTTGGGTGGCTTT-3′ (IDT DNA), Reverse primers HBV-r 5′-[…]-3′ (IDT DNA), Fluorescent TaqMan™ Probes HBV-probe 5′-FAM/AGCTCCAAA/ZEN/[…]/3IABkFQ-3′ (IDT DNA), 10 μL/well of PerfeCTa® qPCR ToughMix® (Quanta Biosciences, Cat #: 95114-05K), and 6 μL/well of DEPC water (Alfa Aesar, cat #: J62087) was prepared. […] of supernatant was added to 16 μL of the reaction mixture in a qPCR plate (Applied Biosytems, Cat #: 4309849), sealed with a film (Applied Biosystems, Cat #: 4311971), centrifuged for a few seconds, and subsequently run on an Applied Biosystems VIIA7. The PCR mixture was incubated at 45° C. for 5 min, then 95° C. for 10 min, followed by 40 cycles of 10 seconds at 95° C. and 20 seconds at 60° C. Viral load was quantified against known HBV DNA standards by using ViiA™ 7 Software. Viral load in the supernatant from wells with treated cells were compared against viral load in supernatant from DMSO control wells (>3 per plate). Cell viability assay was performed with CellTiter-Glo Luminescent Cell Viability Assay (Promega, cat #: G7573) with modification. Mixed appropriate amount of CellTiter-Glo (CTG) 1×DPBS in a 1:1 ratio, added 100 uL of the mixture to each well followed completely removal of all supernatant in each well without touching cell surface. Incubated the plate at room temperature for 10 min on an orbital shaker, and then read the plate with a plate reader (TECAN M1000 or Envision).
Details: HePAD38

| Compound | pEC50 | EC50 |
| --- | --- | --- |
| Cn1nc([C@@H]2CC3CC(O)(CS(=O)(=O)CCO)C[C@H]3C2)c(C(=O)Nc2ccc(F)c(Cl)c2)c1N (some centres undefined) | > 7.00 | – |
| Cn1nc([C@@H]2CC3CC(O)(CSC(C)(C)C)C[C@@H]3C2)c(C(=O)Nc2ccc(F)c(Cl)c2)c1N (some centres undefined) | > 7.00 | – |
| Cn1nc(C2CC3CC(O)(CS(=O)(=O)CCCN4CCNC(=O)C4)CC3C2)c(C(=O)Nc2ccc(F)c(Cl)c2)c1N (centres undefined) | – | in the range around 5250 nM |
| Cn1nc([C@@H]2CC3CC(O)(C[S+]([O-])CC(F)(F)F)C[C@H]3C2)c(C(=O)Nc2ccc(F)c(Cl)c2)c1N (some centres undefined) | > 7.00 | – |
| Cn1cc([C@@H]2CC[C@@H](c3nn(C)c(N)c3C(=O)Nc3ccc(F)c(Cl)c3)C2)cn1 | – | in the range around 300 nM |
| Cn1nc([C@@H]2CC3CC(O)(CN4CCOCC4)C[C@@H]3C2)c(C(=O)Nc2ccc(F)c(Cl)c2)c1N (some centres undefined) | – | in the range around 5250 nM |
| Cn1nc(C2CC3CNCC3C2)c(C(=O)Nc2ccc(F)c(Cl)c2)c1N (centres undefined) | – | in the range around 5250 nM |
| CC(C)OCC1(O)CC2C[C@@H](c3nn(C)c(N)c3C(=O)Nc3ccc(F)c(Cl)c3)C[C@@H]2C1 (some centres undefined) | – | in the range around 300 nM |
| Cn1nc([C@@H]2CC3CC(O)(CSCCO)C[C@@H]3C2)c(C(=O)Nc2ccc(F)c(Cl)c2)c1N (some centres undefined) | > 7.00 | – |
| Cn1nc([C@@H]2CC3CC(O)(CSC(C)(C)C)C[C@H]3C2)c(C(=O)Nc2ccc(F)c(Cl)c2)c1N (some centres undefined) | > 7.00 | – |
| Cn1nc(C2CC3CC(O)(COCC(F)(F)F)CC3C2)c(C(=O)Nc2ccc(F)c(Cl)c2)c1N (centres undefined) | > 7.00 | – |
| Cn1nc([C@@H]2CC3CC(O)(CS(=O)(=O)C4CC4)C[C@@H]3C2)c(C(=O)Nc2ccc(F)c(Cl)c2)c1N (some centres undefined) | > 7.00 | – |
| CCOC(=O)c1c(C2CCC(c3ccccc3)C2)noc1N (centres undefined) | – | in the range around 300 nM |
| Cn1nc(C2CC3CC(O)(C(C)(C)O)CC3C2)c(C(=O)Nc2ccc(F)c(Cl)c2)c1N (centres undefined) | > 7.00 | – |
| Cn1nc(C2CC3CNC(=O)CC3C2)c(C(=O)Nc2ccc(F)c(Cl)c2)c1N (centres undefined) | > 7.00 | – |
| Cn1cc([C@H]2CC[C@H](c3nn(C)c(N)c3C(=O)Nc3ccc(F)c(Cl)c3)C2)cn1 | – | in the range around 300 nM |
| Cn1nc([C@@H]2CC3CC(O)(CSCC(F)(F)F)C[C@@H]3C2)c(C(=O)Nc2ccc(F)c(Cl)c2)c1N (some centres undefined) | > 7.00 | – |

| Compound | pEC50 | EC50 |
| --- | --- | --- |
| Cn1nc([C@@H]2CC3CC(O)(CS(=O)(=O)C(C)(C)C)C[C@H]3C2)c(C(=O)Nc2ccc(F)c(Cl)c2)c1N (some centres undefined) | > 7.00 | – |
| Cn1nc(C2CC3CC(N4CCC4)CC3C2)c(C(=O)Nc2ccc(F)c(Cl)c2)c1N (centres undefined) | – | in the range around 300 nM |
| Cn1nc([C@@H]2CC3CC(O)(CS(=O)(=O)C4CC4)C[C@H]3C2)c(C(=O)Nc2ccc(F)c(Cl)c2)c1N (some centres undefined) | > 7.00 | – |
| Cn1nc([C@@H]2CC3CC(O)(CN4CCCCC4)C[C@@H]3C2)c(C(=O)Nc2ccc(F)c(Cl)c2)c1N (some centres undefined) | – | in the range around 300 nM |
| Cn1nc([C@@H]2CC3CC(O)(CSCC(F)(F)F)C[C@H]3C2)c(C(=O)Nc2ccc(F)c(Cl)c2)c1N (some centres undefined) | > 7.00 | – |
| COc1cc(-c2ncc[nH]2)ccc1[C@H]1CC[C@@H](c2nn(C)c(N)c2C(=O)Nc2ccc(F)c(Cl)c2)C1 | – | in the range around 5250 nM |
| Cn1nc([C@@H]2CC3CC(O)(CS(=O)(=O)CCCN4CCNCC4=O)C[C@@H]3C2)c(C(=O)Nc2ccc(F)c(Cl)c2)c1N (some centres undefined) | – | in the range around 5250 nM |
| CCC1OC[C@]2(CC3C[C@H](c4nn(C)c(N)c4C(=O)Nc4ccc(F)c(Cl)c4)C[C@@H]3C2)O1 (some centres undefined) | > 7.00 | – |
| CC(C)OCC1(O)CC2C[C@@H](c3nn(C)c(N)c3C(=O)Nc3ccc(F)c(Cl)c3)C[C@H]2C1 (some centres undefined) | – | in the range around 5250 nM |
| Cn1nc([C@@H]2CC3CC(O)(CN4CCOCC4)C[C@H]3C2)c(C(=O)Nc2ccc(F)c(Cl)c2)c1N (some centres undefined) | – | in the range around 300 nM |
| CCN(CC)C1CC2CC(c3nn(C)c(N)c3C(=O)Nc3ccc(F)c(Cl)c3)CC2C1 (centres undefined) | – | in the range around 300 nM |
| Cn1nc(C2CC3CC(NCCO)CC3C2)c(C(=O)Nc2ccc(F)c(Cl)c2)c1N (centres undefined) | – | in the range around 300 nM |
| Cn1nc([C@@H]2CC3CC(O)(CSCCN4CCOCC4)C[C@H]3C2)c(C(=O)Nc2ccc(F)c(Cl)c2)c1N (some centres undefined) | > 7.00 | – |
| Cn1nc(C2CC3CC(N4CCCC4)CC3C2)c(C(=O)Nc2ccc(F)c(Cl)c2)c1N (centres undefined) | > 7.00 | – |
| Cn1nc([C@@H]2CC3CC(O)(CC(=O)O)C[C@@H]3C2)c(C(=O)Nc2ccc(F)c(Cl)c2)c1N (some centres undefined) | > 7.00 | – |
| Cn1nc(C2CC3CC4(CNC(=O)C4)CC3C2)c(C(=O)Nc2ccc(F)c(Cl)c2)c1N (centres undefined) | > 7.00 | – |
| CC(C)N1CC2CC(c3nn(C)c(N)c3C(=O)Nc3ccc(F)c(Cl)c3)CC2C1 (centres undefined) | – | in the range around 5250 nM |
